Results reported in patent US20030170656A1, “Method of screening for factors that modulate gene expression” (Chiron Corporation, priority 1995, published 2003).

B1: 16.1: 61 amino acid polypeptide of SEQ ID NO. 2, deconvoluted from pool 16.1, capable of inducing c-fos transcription in NIH3T3 cells (protein)
chain: MTLMVFKCSDNLLLIVVYAKVFPSTSCIHYQIYTCKFEVLLFSQHELKIFCNSARQGSSCL

Key:
Format in all cases: cell-based
[1] = system: c-fos mRNA in NIH3T3 cells; assay: c-fos induction by bDNA assay in NIH3T3 cells (small molecule pool screen with PDGFBB); details: bDNA against c-fos mRNA, read-out: concentration giving 50% of maximal c-fos induction
Protocol: Small molecule library pools are prepared as described above, and 48 such pools were marked and divided for screening. An aliquot of each pool (2 μM final concentration) was placed in a micro-well on a bed of NIH3T3 cells in a microwell and incubated at 37° C. for 45 minutes with 1 ηM PDGFBB.
Each well was assayed by induction of c-fos messenger by bDNA assay against c-fos mRNA. In a previous study (described in example 8), a bDNA assay detected induction of c-fos mRNA by less than 0.01 ηM of PDGFBB (PDGF β chain dimer). 1 ηM of PDGFBB gives 50% of maximal c-fos induction. As previously described, administration of PDGFBB to cells, including FTL cells, induces the transcription of the c-fos gene.
In this study, induction or reduction of the c-fos gene was measured by bDNA. Where an agonist was present in the small molecule library pool, c-fos induction was expected to occur at about the same level or greater as induction by administration of PDGFBB. Where an antagonist was present in the small molecule library pool, c-fos transcription was expected to be reduced perhaps to non-detectable levels. […]

c-fos mRNA in FTL cells = assay: bDNA assay against c-fos mRNA in NIH3T3 derived FTL cells
Protocol: To assay for a growth factor that stimulates the expression of the c-fos gene, NIH3T3 derived FTL cells were selected as the responsive cells. A library for screening is prepared from human tissue as described above for expression in Xenopus oocytes. Plasmid DNAs from small library pools of 100 to 500 independent colonies per pool were constructed and in vitro transcribed into cRNAs. Each pool of cRNAs were injected into Xenopus laevis oocytes and cultured at 18° C. overnight. The next day, each oocyte was then cocultured on a bed of NIH3T3 derived FTL cells in a microwell and incubated at 37° C. for three hours.
The oocytes were removed and induction of c-fos messenger was measured by bDNA assay against c-fos mRNA. […] In the present experiment, a bDNA assay detected a lower concentration of library, with the ability to detect from 4000 FTL cells less than 0.01 nM of PDGFBB (PDGF β chain dimer). As previously described, administration of PDGFBB to cells, including FTL cells, induces the transcription of the c-fos gene.

[2] = system: luciferase mRNA (SRE-luciferase construct) in FTL cells; assay: bDNA assay against luciferase mRNA in SRE-luciferase FTL cells; details: 4000 cells
Protocol: (§1) A construct comprising in operable linkage a luciferase reporter gene and the serum responsive element (SRE) was stably transfected into NIH3T3 derived FTL cells which were selected as the responsive cells. Plasmid DNAs from small library pools of 100 to 500 independent colonies per pool were constructed and in vitro transcribed into cRNAs. Each pool of cRNAs were injected into Xenopus laevis oocytes and cultured at 18° C. overnight. The next day, each oocyte was then cocultured with FTL cells transfected with the SRE-luciferase construct and incubated at 37° C. for three hours in a microwell. The oocytes were removed and induction of luciferase gene was assayed by luciferase assay, and also by bDNA assay against luciferase mRNA. The luciferase assay was sensitive to 4000 cells with a minimum concentration of 1 nM of PDGFBB (PDGF β chain dimer). The bDNA assay detected a lower concentration of library, with the ability to detect from 4000 cells less than 0.01 nM of PDGFBB.

[3] = system: serum responsive element (SRE)-luciferase construct in FTL cells; assay: SRE-luciferase reporter assay (luciferase assay) in NIH3T3 derived FTL cells; details: 4000 cells
Protocol: as §1

[4] = system: c-fos transcription in NIH3T3 cells; assay: Xenopus oocyte/NIH3T3 coculture, c-fos induction by bDNA assay; details: compared to non-stimulated NIH3T3 cells
Description: Manual defolliculated Xenopus oocytes are excellent at expressing in vitro transcribed cRNA and its background c-fos induction activity is almost none. Taking advantage of the size of Xenopus oocytes, a coculture system using Xenopus oocytes and NIH3T3 cells was developed in microplates which allowed the detection of both diffusible and membrane-attached nondiffusible growth factors. However, it was shown that damaged oocytes produce significant c-fos induction in NIH3T3 cells. A repeatable condition was established, however, which was sensitive enough to detect PDGF c-sis activity secreted from an oocyte injected with 0.08 ng of PDGF c-sis cRNA. This sensitivity was shown allowing for detection of PDGF c-sis activity in a pool of 600 clones. Screening was then conducted of 350 pools of a mouse brain cDNA library with a diversity of an average of 150 clones per pool, and 100 pools of a Xenopus embryo library with a diversity of 80 clones per pool. Considering the biological variation between oocytes, each pool of cRNA was injected into three oocytes and subsequently yielded triplicate results.
Among these 450 pools, 61 pools were initially found positive. After multiple repeated experiments, 14 remained moderately positive. […] The nucleotide and translated protein sequence for clone 16.1 was determined, and is represented in SEQ ID NO. […]

Molecule | EC50 [1] [nM] | concentration detectable by bDNA assay against c-fos mRNA (c-fos mRNA in FTL cells; 4000 FTL cells) | concentration inducing c-fos mRNA detected by bDNA assay (c-fos mRNA in FTL cells; as restated in Example 9 from Example 8) | concentration detectable by bDNA assay against luciferase mRNA [2] | minimum concentration detected by luciferase assay [3] [nM] | induction of c-fos transcription [4] [fold] | induction of c-fos transcription ([4]; listed as SEQ ID NO. 2)
PDGFBB: PDGF β chain dimer | 1 | less than 0.01 nM | less than 0.01 ηM | less than 0.01 nM | 1 |  | 
B1 |  |  |  |  |  | 5 | about 5 fold
